Entries after “also recorded” stand apart in the source; their conditions may differ.
Key:
[1] = preclinical study in dogs; cited from earlier work
myeloperoxidase = system: myeloperoxidase; design: method as in E Michaëlsson et al., manuscript in preparation; settings: in vitro, unpublished; ref E Michaëlsson et al., manuscript in preparation; cited from earlier work
xanthine oxidase = system: xanthine oxidase; design: method as in E Michaëlsson et al., manuscript in preparation; settings: in vitro; ref E Michaëlsson et al., manuscript in preparation; cited from earlier work
serum uric acid = experiment: Serum uric acid (urate), exploratory pharmacodynamic outcome; table data mean (standard deviation); assay type: in vivo, healthy men; settings: for decrease in mean serum uric acid concentration: 48 hours after dosing
Source text: The primary objective of the study was to evaluate the safety and tolerability of AZD4831 in healthy volunteers.
Data are mean (standard deviation).

C[C@@H](N)c1cc(Cl)ccc1Cn1c(=S)[nH]c(=O)c2[nH]ccc21 [AZD4831]
dose at which no adverse effects were observed [1]: 20 mg kg^−1 per day
inhibition of oxidation of xanthine and uric acid by myeloperoxidase (myeloperoxidase): inhibits
inhibition of xanthine oxidase (xanthine oxidase): does not inhibit; also recorded: is not a substrate or an inhibitor
Urate (serum uric acid; 5 mg fasted, 24 h): 335.1 (75.2) µmol L^–1
Urate (serum uric acid; 5 mg fasted, 48 h): 293.2 (64.0) µmol L^–1
Urate (serum uric acid; 5 mg fasted, follow up): 326.3 (84.2) µmol L^–1
Urate (serum uric acid; 15 mg fasted, 24 h): 364.7 (35.3) µmol L^–1
Urate (serum uric acid; 15 mg fasted, 48 h): 331.6 (30.7) µmol L^–1
Urate (serum uric acid; 15 mg fasted, 72 h): 355.7 (25.4) µmol L^–1
Urate (serum uric acid; 15 mg fasted, 96 h): 366.5 (25.3) µmol L^–1
Urate (serum uric acid; 15 mg fasted, 120 h): 370.8 (40.4) µmol L^–1
Urate (serum uric acid; 15 mg fasted, follow up): 366.3 (47.1) µmol L^–1
Urate (serum uric acid; 45 mg fasted, 24 h): 361.7 (111.9) µmol L^–1
Urate (serum uric acid; 45 mg fasted, 48 h): 339.8 (113.0) µmol L^–1
Urate (serum uric acid; 45 mg fasted, 72 h): 362.1 (111.6) µmol L^–1
Urate (serum uric acid; 45 mg fasted, 96 h): 366.3 (112.8) µmol L^–1
Urate (serum uric acid; 45 mg fasted, 120 h): 382.6 (93.3) µmol L^–1
Urate (serum uric acid; 45 mg fasted, follow up): 397.6 (112.6) µmol L^–1
Urate (serum uric acid; 45 mg fed, 24 h): 296.4 (62.8) µmol L^–1
Urate (serum uric acid; 45 mg fed, 48 h): 283.0 (57.0) µmol L^–1
Urate (serum uric acid; 45 mg fed, 72 h): 313.2 (47.1) µmol L^–1
Urate (serum uric acid; 45 mg fed, 96 h): 316.0 (47.3) µmol L^–1
Urate (serum uric acid; 45 mg fed, 120 h): 316.5 (67.1) µmol L^–1
Urate (serum uric acid; 45 mg fed, follow up): 314.0 (77.9) µmol L^–1
Urate (serum uric acid; 135 mg fasted, 24 h): 344.3 (18.6) µmol L^–1
Urate (serum uric acid; 135 mg fasted, 48 h): 311.3 (18.6) µmol L^–1
Urate (serum uric acid; 135 mg fasted, 72 h): 339.2 (13.9) µmol L^–1
Urate (serum uric acid; 135 mg fasted, 96 h): 346.2 (25.0) µmol L^–1
Urate (serum uric acid; 135 mg fasted, 120 h): 365.9 (42.1) µmol L^–1
Urate (serum uric acid; 135 mg fasted, follow up): 370.3 (31.4) µmol L^–1
decrease in mean serum uric acid concentration (serum uric acid; 135 mg, 95% CI 29.15, 114.39, mean predose 383.0 (SD 47.5)): 71.77 µmol/L
Urate (serum uric acid; 405 mg fasted, 24 h): 262.8 (65.4) µmol L^–1
Urate (serum uric acid; 405 mg fasted, 48 h): 244.6 (51.2) µmol L^–1
Urate (serum uric acid; 405 mg fasted, 72 h): 256.1 (44.7) µmol L^–1
Urate (serum uric acid; 405 mg fasted, 96 h): 289.3 (46.2) µmol L^–1
Urate (serum uric acid; 405 mg fasted, 120 h): 307.2 (50.9) µmol L^–1
Urate (serum uric acid; 405 mg fasted, follow up): 322.2 (59.1) µmol L^–1
decrease in mean serum uric acid concentration (serum uric acid; 405 mg, 95% CI 58.90, 109.94, mean predose 329.0 (SD 54.2)): 84.42 µmol/L

From PMC6422671 (British Journal of Clinical Pharmacology, 2019)
